Assay results taken from patent US10513521B2, “Compositions and methods for inhibiting BMP” (The Brigham and Women's Hospital, Inc., priority 2014, dated 2019).
Where “and” joins values, the source holds several entries; their conditions need not be identical. Identical values can stand only once.

Tests used:
[1] = Cell-based assay, TGFb1 (Cell IC50)
[2] = target: T1, ALK1 (Bos taurus, UniProt A4FUX2); test: HTRF pSMAD1 cell-based ALK1 assay (BAOEC cells, BMP9 as agonist); design: species or system Bovine
T1 construct: The BAOEC cell line was employed for the measurement of ALK1 activity using BMP9 as the agonist; host or cells: BAOEC (bovine aortic endothelial cells)
T1 sequence (A4FUX2 23-503): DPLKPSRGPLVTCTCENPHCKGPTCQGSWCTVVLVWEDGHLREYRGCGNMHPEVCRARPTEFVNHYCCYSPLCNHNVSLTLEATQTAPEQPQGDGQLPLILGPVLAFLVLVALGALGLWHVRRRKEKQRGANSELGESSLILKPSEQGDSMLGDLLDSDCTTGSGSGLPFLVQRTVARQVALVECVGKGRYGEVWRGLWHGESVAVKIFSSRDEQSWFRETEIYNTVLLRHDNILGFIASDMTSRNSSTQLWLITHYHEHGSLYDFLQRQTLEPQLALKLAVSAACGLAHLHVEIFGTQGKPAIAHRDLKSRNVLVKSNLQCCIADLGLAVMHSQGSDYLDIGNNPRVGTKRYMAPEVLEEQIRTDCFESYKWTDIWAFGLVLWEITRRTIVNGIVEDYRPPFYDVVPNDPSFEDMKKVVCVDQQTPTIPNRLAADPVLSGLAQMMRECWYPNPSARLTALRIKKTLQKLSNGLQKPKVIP
Method: 2. HTRF Cell-Based ALK1 and ALK2 Assays in 384-Well Plate Format We have developed a cell based ALK1 kinase assay and a cell-based ALK2 assay. The BAOEC cell line was employed for the measurement of ALK1 activity using BMP9 as the agonist. The C2C12 cell line was selected for the measurement of ALK2 activity using BMP6 as the agonist. The kinase specificity was defined by the specific cell line and agonist. The kinase activity was determined by the status of SMD 1/5/8 phosphorylation stimulated by the agonist.
HyClone Fetal Bovine Serum was obtained from GE healthcare life sciences (Logan, Utah). BMP6 and BMP9 were purchased from R&D System. […] The compound plates and the white solid MB assay plates were purchased from Greiner Bio-one (Monroe, N.C.).
HTRF optimization experiments were performed in 384 well plate format. […] Pre-starved cells were then plated in 384 well plate in the starvation medium (containing in 0.1% FBS). After 4 hours, compounds were added to the assay plate and incubated for 30 minutes. The assay plate was then added with BMP6 for C2C12 cells or BMP9 for BAOEC cells and incubated for 30 minutes.
HTRF assay was performed to measure the status of SMAD 1 phosphorylation after stimulated with the agonist (Table 3). This HTRF phospho SMAD1 cell assay was developed and optimized for the homogenous detection of phospho SMAD 1 levels in cells. […] The plate was incubated at room temperature for overnight.

Compound	IC50 [1]	IC50 [2]
C[C@@H]1CNC[C@H](C)N1c1ccc(-c2cnc3c(-c4cccc5c(C(N)=O)cccc45)cnn3c2)cc1 [Compound 10, 5-(6-(4-((2S,6R)-2,6-dimethylpiperazin-1-yl)phenyl)pyrazolo[1,5-a]pyrimidin-3-yl)-1-naphthamide]	353 nM	44 nM and 20 nM
CC(C)(CN1CCCCC1)Oc1ccc(-c2cnc3c(-c4cccc5c(C(N)=O)cccc45)cnn3c2)cc1 [Compound 18, 5-(6-(4-((2-methyl-1-(piperidin-1-yl)propan-2-yl)oxy)phenyl)pyrazolo[1,5-a]pyrimidin-3-yl)-1-naphthamide]	270 nM	–
N/C(=N/O)c1ccc(-c2cnn3cc(-c4ccc(N5CCNCC5)cc4)cnc23)c2ccccc12 [Compound 15, N′-hydroxy-4-(6-(4-(piperazin-1-yl)phenyl)pyrazolo[1,5-a]pyrimidin-3-yl)-1-naphthimidamide]	2660 nM	–
C[S+](=O)([O-])c1cccc(-c2cnn3cc(-c4ccc(OC5(CN6CCCCC6)COC5)cc4)cnc23)c1 [Compound 93, 3-(3-(methylsulfonyl)phenyl)-6-(4-((3-(piperidin-1-ylmethyl)oxetan-3-yl)oxy)phenyl)pyrazolo[1,5-a]pyrimidine]	100000 nM	180 nM
C[C@@H]1CNC[C@H](C)N1c1ccc(-c2cnc3c(-c4cccc(C(C)(C)O)c4)cnn3c2)cc1 [Compound 103, 2-(3-(6-(4-((2R,6S)-2,6-dimethylpiperazin-1-yl)phenyl)pyrazolo[1,5-a]pyrimidin-3-yl)phenyl)propan-2-ol]	–	14 nM
C[C@@H]1CNC[C@H](C)N1c1ccc(-c2cnc3c(-c4cccc([S+](=O)([O-])C5CC5)c4)cnn3c2)cc1 [Compound 111, 3-(3-(cyclopropylsulfonyl)phenyl)-6-(4-((2R,6S)-2,6-dimethylpiperazin-1-yl)phenyl)pyrazolo[1,5-a]pyrimidine]	–	850 nM

Continued by falling IC50 [2], values first:

IC50 [1]	IC50 [2]	Compound
–	190 nM	C[C@@H]1CNC[C@H](C)N1c1ccc(-c2cnc3c(-c4cccc(S(C)(=O)=O)c4)cnn3c2)cc1 [Compound 82, 6-(4-((2R,6S)-2,6-dimethylpiperazin-1-yl)phenyl)-3-(3-(methylsulfonyl)phenyl)pyrazolo[1,5-a]pyrimidine]
–	140 nM	C[S+](=O)([O-])c1cccc(-c2cnn3cc(-c4ccc(OC5(Cn6ccnc6)COC5)cc4)cnc23)c1 [Compound 105, 6-(4-((3-((1H-imidazol-1-yl)methyl)oxetan-3-yl)oxy)phenyl)-3-(3-(methylsulfonyl)phenyl)pyrazolo[1,5-a]pyrimidine]
956 nM	100 nM	CC(O)c1cccc(-c2cnn3cc(-c4ccc(N5[C@H](C)CNC[C@@H]5C)cc4)cnc23)c1 (stereo partly drawn) [Compound 83, 1-(3-(6-(4-((2R,6S)-2,6-dimethylpiperazin-1-yl)phenyl)pyrazolo[5-a]pyrimidin-3-yl)phenyl)ethanol]
–	71 nM	CC[S+](=O)([O-])c1cccc(-c2cnn3cc(-c4ccc(N5[C@H](C)CNC[C@@H]5C)cc4)cnc23)c1 [Compound 104, 6-(4-((2R,6S)-2,6-dimethylpiperazin-1-yl)phenyl)-3-(3-(ethylsulfonyl)phenyl)pyrazolo[1,5-a]pyrimidine]
